In patent US4061760A, “Method for using 3-substituted-5-phenyl-5-pyridyl hydantoins as antiarrhythmic agents” (priority 1976, dated 1977):

Tests used:
[1] = cited from earlier work; for side effects / toxicity (in words): background
in vivo [2] = format: in vivo; details: mouse, in vivo, ip; LD50 and ED50 in mg/kg, i.p.; read-out: Therapeutic index
Description: (§1) The test compounds were administered in varying intraperitoneal doses to groups consisting of 5 mice. Ten minutes after administration of a given dose of a compound, a mouse was transferred to a covered 300 ml glass beaker that contained a wad of cotton saturated with about 20 ml of chloroform. The animal was observed closely and removed from the beaker immediately after respiratory arrest. The heart was quickly exposed by making an incision through the abdomen, diaphragm, thorax and pericardium for visual inspection of ventricular rate and rhythm. Ventricular contractions were counted for 30 seconds. According to the procedure reported by Lawson, animals with ventricular rate not exceeding 100 contractions during the 30 second observation period were considered protected.

[3] = test system: ventricular rate and rhythm; test: animal or person; format: in vivo; details: for ED50: Mus musculus, ip, 10 min, read-out: ED50 (95% CL)
Description: as §1

in vivo [4] = details: ip
Source text: LD50 data were obtained by standard procedures known to the art.

[5] = Casagrande, quoted; cited from earlier work

| Compound | selectivity ratio (in vivo [2]) | ED50 [3] [mg/kg] | LD50 (in vivo [4]) [mg/kg] | other results |
| --- | --- | --- | --- | --- |
| O=C1NC(=O)C(c2ccccc2)(c2ccccc2)N1 [DPH, 5,5-diphenyl-2,4-imidazolidinedione] |  |  |  | side effects / toxicity (in words) [1]: dizziness, nausea, emesis, nystimus, and ataxia; side effects at large doses (in words) ([1]; large doses): atrio-ventricular blockage, bradycardia, or even cardiac arrest |
| O=C1NC(c2ccccc2)(c2ccccn2)C(=O)N1CCCN1CCC(c2ccccc2)CC1 (stereo not shown) [Example 1, 3-[3-(4-phenyl-1-piperidyl)propyl]-5-phenyl-5-(2-pyridyl)hydantoin] | 9 | 15.3 | 136 |  |
| O=C1NC(c2ccccc2)(c2ccccn2)C(=O)N1CCCN1CCC(O)(c2ccccc2)CC1 (stereo not shown) [Example 2, 3-[3-(4-hydroxy-4-phenyl-1-piperidyl)propyl]-5-phenyl-5-(2-pyridyl)hydantoin] | 3.4 | 19.2 | 65 |  |
| O=C1NC(c2ccccc2)(c2cccnc2)C(=O)N1CCCN1CCC(c2ccccc2)CC1 (stereo not shown) [Example 4, 3-[3-(4-phenyl-1-piperidyl)propyl]-5-phenyl-5-(3-pyridyl)-hydantoin] | 5 | 31 | 156 |  |
| O=C1NC(c2ccccc2)(c2ccncc2)C(=O)N1CCCN1CCC(c2ccccc2)CC1 (stereo not shown) [Example 5, 3-[3-(4-phenyl-1-piperidyl)propyl]-5-phenyl-5-(4-pyridyl)hydantoin] | 2.1 | 28 | 61 |  |
| C=C[C@H]1C[N@@]2CC[C@H]1C[C@@H]2[C@@H](O)c1ccnc2ccc(OC)cc12 [I, quinidine] |  |  |  | side effects / toxicity (in words) [1]: relatively toxic |
| O=C1NC(=O)C(c2ccccc2)(c2ccccn2)N1 (stereo not shown) [V, 5-phenyl-5-(2-pyridyl)hydantoin] | 1.16 | 160 | 186 |  |
| O=C1NC(=O)C(c2ccccc2)(c2cccnc2)N1 (stereo not shown) [VI, 5-phenyl-5-(3-pyridyl)hydantoin] |  | > 310 |  | mice protected ([3]; at 310 mg/kg, i.p.): 2 of 5 |
| O=C1NC(=O)C(c2ccccc2)(c2ccncc2)N1 (stereo not shown) [VII, 5-phenyl-5-(4-pyridyl)hydantoin] | 1.17 | 205 | 240 |  |
| CN(C)CCN1C(=O)NC(c2ccccc2)(c2cccnc2)C1=O (stereo not drawn) [compound XXV, 3-(2-dimethylamino-ethyl)-5-phenyl-5β-pyridyl-hydantoin] |  |  |  | therapeutic index clearly superior to that of quinidine (in words) [5]: had not been fulfilled |
| CC(CN(C)C)CN1C(=O)NC(c2ccccc2)(c2cccnc2)C1=O (stereo not drawn) [compound XXX, 3-(2-methyl-3-dimethylamino-propyl)-5-phenyl-5β-pyridyl-hydantoin] |  |  |  | therapeutic index clearly superior to that of quinidine (in words) [5]: had not been fulfilled |
